The source made the active and inactive calls. No cut-off for these calls is given here.
Columns and labels:
Rattus norvegicus [1] = assay: Antidiabetic activity in streptozotocin-induced Albino Wistar rat diabetic model assessed as decrease in blood glucose level at 36 mg/kg, po measured after 15 days by glucose oxidase method; assay type: functional, organism-based; set-up: dose 36 mg/kg
Rattus norvegicus [2] = species: Rattus norvegicus; assay: Antidiabetic activity in Albino Wistar rat assessed as reduction of blood glucose level measured at 120 mins after glucose injection by oral glucose tolerance test; assay type: functional, organism-based
Rattus norvegicus [3] = species: Rattus norvegicus; assay: Antidiabetic activity in Albino Wistar rat assessed as improvement in insulin resistance measured at 90 mins after insulin injection by insulin tolerance test; assay type: functional, organism-based
Rattus norvegicus [4] = species: Rattus norvegicus; assay: Toxicity in Albino Wistar rat assessed as change in body weight relative to control; assay type: organism-based; conditions: in vivo
Rattus norvegicus [5] = assay: Antidiabetic activity in streptozotocin-induced Albino Wistar rat diabetic model assessed as improvement in body weight at 36 mg/kg, po measured after 15 days by glucose oxidase method; assay type: functional, organism-based; set-up: dose 36 mg/kg
Rattus norvegicus [6] = species: Rattus norvegicus; assay: Reduction in streptozotocin-induced aspartate aminotransferase level in Albino Wistar rat diabetic model; assay type: functional, organism-based
Rattus norvegicus [7] = species: Rattus norvegicus; assay: Reduction in streptozotocin-induced alanine transaminase level in Albino Wistar rat diabetic model; assay type: functional, organism-based
Rattus norvegicus [8] = species: Rattus norvegicus; assay: Reduction in streptozotocin-induced alkaline phosphatase level in Albino Wistar rat diabetic model; assay type: functional, organism-based
Rattus norvegicus [9] = species: Rattus norvegicus; assay: Toxicity in streptozotocin-induced in Albino Wistar rat diabetic model assessed as liver damage by Haematoxylin/Eosin staining-based microscopy; assay type: organism-based; conditions: in vivo
Rattus norvegicus [10] = species: Rattus norvegicus; assay: Hepatotoxicity in streptozotocin-induced in Albino Wistar rat diabetic model assessed increase in sinusoidal dilatation by Haematoxylin/Eosin staining-based microscopy; assay type: toxicity, organism-based; conditions: in vivo
Rattus norvegicus [11] = species: Rattus norvegicus; assay: Hepatotoxicity in streptozotocin-induced in Albino Wistar rat diabetic model assessed increase in portal triad Inflammation by Haematoxylin/Eosin staining-based microscopy; assay type: toxicity, organism-based; conditions: in vivo
Rattus norvegicus [12] = species: Rattus norvegicus; assay: Hepatotoxicity in streptozotocin-induced in Albino Wistar rat diabetic model assessed as fatty changes in hepatocyte by Haematoxylin/Eosin staining-based microscopy; assay type: toxicity, organism-based; conditions: hepatocytes
Rattus norvegicus [13] = species: Rattus norvegicus; assay: Hepatotoxicity in streptozotocin-induced in Albino Wistar rat diabetic model assessed as hepatocyte swelling by Haematoxylin/Eosin staining-based microscopy; assay type: toxicity, organism-based; conditions: hepatocytes

Activity (Rattus norvegicus [6])	Activity (Rattus norvegicus [7])	Activity (Rattus norvegicus [8])	SMILES	inhibition (Rattus norvegicus [1])	Activity (Rattus norvegicus [9])	Activity (Rattus norvegicus [10])	Activity (Rattus norvegicus [11])	Activity (Rattus norvegicus [12])	Activity (Rattus norvegicus [13])	other results
Active	Active	Active	O=C1NC(=O)C(Cc2coc3ccc(Cl)cc3c2=O)S1 (stereo unspecified)	Active	Non-toxic	Non-toxic	Non-toxic	Non-toxic	Non-toxic	inhibition (Rattus norvegicus [2]): Active; Activity (Rattus norvegicus [3]): Active; Activity (Rattus norvegicus [4]): Non-toxic; Activity (Rattus norvegicus [5]): Active
			COc1ccc2c(c1)C(=O)C(CC1SC(=O)NC1=O)CO2 (stereo unspecified)	Active						
			O=C1NC(=O)C(Cc2coc3ccccc3c2=O)S1 (stereo unspecified)	Active						
			Cc1ccc2c(c1)C(=O)C(CC1SC(=O)NC1=O)CO2 (stereo unspecified)	Active						
			Cc1ccc2occ(CC3SC(=O)NC3=O)c(=O)c2c1 (stereo unspecified)	Active						
			O=C1NC(=O)C(CC2COc3c(Cl)cc(Cl)cc3C2=O)S1 (stereo unspecified)	Active						
Active	Active	Active	O=C1NC(=O)C(Cc2coc3c(Cl)cc(Cl)cc3c2=O)S1 (stereo unspecified)	Active	Toxic	Toxic	Non-toxic	Non-toxic	Non-toxic	
			CCc1ccc(CCOc2ccc(CC3SC(=O)NC3=O)cc2)nc1 (stereo unspecified) [PIOGLITAZONE]			Toxic	Non-toxic	Non-toxic	Non-toxic	
			COc1cccc2c1C(=O)C(CC1SC(=O)NC1=O)CO2 (stereo unspecified)	Active						
Active	Active	Active	O=C1NC(=O)C(Cc2coc3ccc(Br)cc3c2=O)S1 (stereo unspecified)	Active	Toxic	Toxic	Non-toxic	Non-toxic	Non-toxic	
			O=C1NC(=O)C(CC2COc3ccc(Br)cc3C2=O)S1 (stereo unspecified)	Active						
Active	Active	Active	O=C1NC(=O)C(Cc2coc3ccc(F)cc3c2=O)S1 (stereo unspecified)	Active	Toxic	Toxic	Non-toxic	Non-toxic	Non-toxic	
Active	Active	Active	COc1ccc2occ(CC3SC(=O)NC3=O)c(=O)c2c1 (stereo unspecified)	Active	Non-toxic	Non-toxic	Non-toxic	Non-toxic	Non-toxic	
			O=C1NC(=O)C(CC2COc3ccc(F)cc3C2=O)S1 (stereo unspecified)	Active						

— ChEMBL document CHEMBL3297740, “Thiazolidine-2,4-diones derivatives as PPAR-γ agonists: synthesis, molecular docking, in vitro and in vivo antidiabetic activity with hepatotoxicity risk evaluation and effect on PPAR-γ gene expression” (Bioorg Med Chem Lett, 2014)
